Positions count from the first letter of the chain named.
Columns and labels:
Aurora A (AurA) [1] = experiment: Steady-state FRET ligand titration with FRET-labeled AurA; type: binding, human; settings: apo AurA, Alexa 488/Alexa 568
Procedure: (§1) ADP stocks (Sigma-Aldrich Corporation, St. Louis, Mo.) were dissolved at 100 mM in 1 M HEPES pH 7.5 and stored at −20° C.
(§2) Samples were excited at 490 nm and fluorescence emission was recorded 510 nm to 750 nm.
(§3) Ligand binding data were visualized and analyzed using Microsoft Excel and Origin software. FRET was calculated using the equation E=1−(DA/D), where E is the efficiency of FRET, DA is the fluorescence of the AurA+D+A sample, and D is the fluorescence of the corresponding AurA+D control sample.

Aurora A (AurA) [2] = target: T1, Aurora A (AurA) (Homo sapiens, UniProt O14965, C290S/C393S/L225C/S284C); experiment: as above; type: binding; settings: ligand added to apo AurA, calculated from published R0
T1 construct: human Aurora A, residues 122-403, containing an N-terminal hexahistidine tag; hexahistidine (N); made in house; host or cells: E. coli BL21-DE3-RIL
T1 sequence (O14965 122-403 L225C/S284C/C290S/C393S): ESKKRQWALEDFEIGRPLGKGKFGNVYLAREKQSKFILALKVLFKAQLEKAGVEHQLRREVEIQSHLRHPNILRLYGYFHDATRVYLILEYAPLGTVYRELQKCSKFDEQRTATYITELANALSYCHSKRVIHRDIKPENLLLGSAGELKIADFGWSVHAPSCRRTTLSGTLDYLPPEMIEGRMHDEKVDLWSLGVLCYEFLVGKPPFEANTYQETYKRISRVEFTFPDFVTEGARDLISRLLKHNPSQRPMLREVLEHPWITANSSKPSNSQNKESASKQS
Procedure: as §1, §2, §3

Aurora A (AurA) [3] = target: T2, Aurora A (AurA) (Homo sapiens, UniProt O14965, C290S/C393S/L225C/T287C); experiment: Time-resolved FRET ligand titration with labeled AurA (Example 1); type: binding; settings: TR-FRET, ligand added to labeled AurA
T2 construct: human Aurora A, residues 122-403, containing an N-terminal hexahistidine tag; hexahistidine (N); made in house; host or cells: E. coli BL21-DE3-RIL
T2 sequence (O14965 122-403 L225C/T287C/C290S/C393S): T1 sequence (O14965 122-403 L225C/S284C/C290S/C393S) with C163S, T166C
Procedure: Direct waveform recording experiments were performed in a 384 well plate, and measurement was performed using a NovaFluor fluorescence lifetime plate reader (Fluorescence Innovations, Inc., Minneapolis, Minn.). […] Experiments were performed at 50 nM AurA in ADP Quest Assay buffer+1% DMSO.
TCSPC experiments were performed using a spectrometer built by the group of Dr. David D. Thomas. […] Experiments were performed at 100 nM to 200 nM AurA in ADP Quest Assay buffer+1% DMSO.

AurA = target: T3, AurA (Homo sapiens, UniProt O14965); settings: FIG. 11; cited from earlier work
T3 sequence (O14965 1-403): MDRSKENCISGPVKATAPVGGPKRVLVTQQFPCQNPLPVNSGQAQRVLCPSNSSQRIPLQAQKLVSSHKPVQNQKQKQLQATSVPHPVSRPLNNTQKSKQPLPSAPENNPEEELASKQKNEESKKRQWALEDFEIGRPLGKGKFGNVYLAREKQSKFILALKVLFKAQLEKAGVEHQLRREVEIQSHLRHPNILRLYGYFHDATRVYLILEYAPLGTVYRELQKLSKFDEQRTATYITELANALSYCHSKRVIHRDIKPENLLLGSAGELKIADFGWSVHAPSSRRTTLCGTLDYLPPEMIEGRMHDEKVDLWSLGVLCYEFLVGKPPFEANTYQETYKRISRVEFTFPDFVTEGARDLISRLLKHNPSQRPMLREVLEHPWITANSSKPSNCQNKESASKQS

Aurora A (AurA) [4] = target: T4, Aurora A (AurA) (Homo sapiens, UniProt O14965, C290S/C393S/L225C/S284C); experiment: Time-resolved FRET lifetime assay, AurA biosensor labeled at L225C/S284C, 384-well plates; settings: 5 μM inhibitor, unphosphorylated AurA bound to TPX2
T4 sequence (O14965 122-403 L225C/S284C/C290S/C393S): T1 sequence (O14965 122-403 L225C/S284C/C290S/C393S)
T4 sequence (Q9ULW0 1-43 partner): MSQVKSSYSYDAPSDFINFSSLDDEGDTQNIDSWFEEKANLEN

Aurora A (AurA) [5] = experiment: as above; settings: for DFG-In/DFG-Out state of AurA on inhibitor binding / inter-probe distance: 5 μM inhibitor; for DFG-In/DFG-Out state of AurA on inhibitor binding: samples lacking TPX2; for inter-probe distance: samples lacking TPX2 (phosphorylated and unphosphorylated AurA)
[6] = test system: interaction between AurA and the oncoprotein MYC; settings: cited from earlier work
p53-altered liver cancer = settings: mice; cited from earlier work

Row | DFG-In/DFG-Out state of AurA on inhibitor binding (Aurora A (AurA) [5]) | Molecule | change in FRET on addition of ligand (Aurora A (AurA) [1]) | inter-probe distance (Aurora A (AurA) [5]) | further results
1 | – | Nc1ncnc2c1ncn2[C@@H]1O[C@H](COP(=O)(O)OP(=O)(O)O)[C@@H](O)[C@H]1O [ADP] | reduce FRET | – | increase in population average R (donor-acceptor distance) (Aurora A (AurA) [2]): approximately 3 Å; change in average fluorescence lifetime (Aurora A (AurA) [3]): increase in average fluorescence lifetime
2 | DFG-Out state | CO[C@@H](C(=O)N1Cc2n[nH]c(NC(=O)c3ccc(N4CCN(C)CC4)cc3)c2C1)c1ccccc1 [Danusertib] | – | ~30 Å | AurA state in the X-ray structure with bound inhibitor (AurA): DFG-Out state; inter-probe distance relative to DFG-In compounds (Aurora A (AurA) [4]): slightly shorter distances
3 | DFG-Out state | O=C(O)c1ccc(Nc2ncc3c(n2)-c2ccc(Cl)cc2C(c2c(F)cccc2F)=NC3)cc1 [MLN-8054] | – | – | effect on the AurA-MYC interaction [6]: disrupt; AurA state in the X-ray structure with bound inhibitor (AurA): DFG-Out state; treatment outcome (p53-altered liver cancer): successful treatment
4 | DFG-In state | CCc1cccc(CC)c1NC(=O)N1Cc2n[nH]c(NC(=O)c3ccc(N4CCN(C)CC4)cc3)c2C1 [PHA-680632] | – | long distances | –
5 | – | O=C(Nc1cccc(Cl)c1)Nc1ncc(CCNc2ncnc3ccsc23)s1 [SNS-314] | – | long distances | –
6 | DFG-In state | COc1cc(N2CCC(N3CCN(C)CC3)CC2)ccc1Nc1ncc(Cl)c(Nc2ccccc2S(=O)(=O)C(C)C)n1 [TAE-684] | – | long distances | –
7 | DFG-Out state | Cc1cc(Nc2cc(N3CCN(C)CC3)nc(Sc3ccc(NC(=O)C4CC4)cc3)n2)n[nH]1 [VX-680] | no observable change | ~30 Å | –
8 | – | TPX2: AurA-specific activator peptide, synthetic construct of human TPX2 residues 1-43 (MSQVKSSYSYDAPSDFINFSSLDDEGDTQNIDSWFEEKANLEN; UniProt Q9ULW0 1-43, looked up, fragment) | reduces FRET | – | width of the distance distribution (full width at half maximum) (Aurora A (AurA) [5]; in the presence of TPX2, no inhibitor): narrow significantly; inter-dye distance (Aurora A (AurA) [5]; in the presence of TPX2, no inhibitor, unphosphorylated and phosphorylated samples (approximately 30 Å without TPX2)): approximately 50 Å

From US11099177B2, “Protein kinase allostery sensor and methods of making and using same” (REGENTS OF THE UNIVERSITY OF MINNESOTA, priority 2016, dated 2021)
